Data taken from US8895032B2, “Dendritic nano-antioxidants” (Central Michigan University, priority 2009, dated 2014).

Key:
[1] = tested on: Chinese hamster ovary (CHO-K1) cells; assay: Cell toxicity, MTT; assay type: cell-based; conditions: 3.1-50 μM, over 5 days
Protocol: Data on cell toxicity of compound 4 and compound 5 were obtained with Chinese hamster ovary (CHO) cells using 3-(4,5-di-methylthizol-2-yl)-2,5 diphenyltetrazolium bromide (MTT). Chinese Hamster Ovary (CHO-K1) cells were cultured in F-12K medium supplemented with 10% fetal bovine serum. The cells (3×10^5/ml) were seeded in 100 μL volumes in 96 well culture plates and incubated with the solvent control (DMSO, 0.3%), compound 4 or compound 5 at 3.1, 6.2, 12.5, 25, or 50 μM for 1, 3, or 5 days. Two hours prior to experimental termination, 20 μL of a 5 mg/mL MTT solution in 0.01 M PBS was added to each well. Plates were centrifuged at 450×g for 10 min and supernatant was removed. The resultant formazan crystals were dissolved in 100 μL DMSO and mixed. Absorbance was measured using a Biolog microplate reader (Biotek Instruments) at dual wavelengths, 590 and 650 nm. Percent control response was calculated as follows: (absorbance of treatment/absorbance of control)×100. All experiments were performed in triplicate and repeated. The data were analyzed using Systat 12 for windows. Multiple groups were compared using a one-way analysis of variance (ANOVA) and a Tukey test for mean separation. A p value<0.05 was considered statistically significant.

plasmid DNA pBR 322 = assay: Protection of plasmid DNA from AAPH damage (agarose electrophoresis); assay type: biochemical; conditions: 10 mM AAPH, 37° C., 4 h; for DNA protection: 5 μM antioxidant
Protocol: The effectiveness of the three compounds to protect DNA from AAPH damage was also determined. The plasmid DNA pBR 322 was incubated with AAPH (final concentration 10 mM) at 37° C. for 4 h with or without antioxidants (final concentrations, 0.35-45 μM), after which the samples were subjected to agarose electrophoresis (Sakihama, Y., et al. Toxicology 2002, 177, 67, incorporated herein by reference in its entirety). […] In the absence of AAPH, pBR 322 was mostly in its supercoiled (S) form (small amount of open circular, O, form was also visible, lane 1 FIG. 25). After reaction with AAPH, the DNA was transformed almost entirely into its open circular form (lane 2, FIG. 25). […] No protection was obtained for both compound 1 and quercetin below 5 μM (lanes 7-10, FIG. 25). […] Compound 3 as well as Trolox were ineffective at all concentrations used in the experiment (0.35-45 μM).
Protection of DNA from free radical damage by the antioxidant dendrimers (compounds 4, 5, and 1) was also evaluated. Plasmid DNA (pBR 322) samples, were incubated with AAPH (final concentration 10 mM) at 37° C. for 4 h with antioxidants (final concentrations, 0.35-45 μM) and subjected to agarose electrophoresis. […] The native DNA was mostly in its supercoiled (S) form (small amount of open circular, O, form was also visible, lane 1, FIG. 31). In the presence of AAPH, the DNA was transformed almost entirely into its O form (lane 2, FIG. 31). […] Negligible DNA protection was afforded by all three dendrimers at ≦2.5 μM (lanes 7-10, FIG. 31). Under similar conditions, Trolox as well as the starting materials for dendrimer synthesis were ineffective at all concentrations.

Human LDL = assay: Protection of LDL from AAPH oxidation (agarose gel electrophoresis); assay type: biochemical; conditions: 21 h, 37° C.
Description: The antioxidant activity of compounds 1, 2, and 3 towards biomolecules was examined by studying their ability to protect LDL, fatty acid, and DNA from free radicals. For LDL, AAPH was used to induce free radical damage. AAPH was used instead of copper (Cu^2) ion for LDL oxidation so that the free radical scavenging activity of the antioxidants could be measured without any pro-oxidant interference caused by metal ions (Salah, N. et al. Arch. Biochem. Biophys. 1995, 322, 339, incorporated herein by reference in its entirety). All solutions were made in ultra-pure water.
Protection of LDL from AAPH free radicals by the antioxidant decreased the anodic shift in a dose-dependent manner (FIG. 23). […] The increased hydrophobicity of compound 3 may be partly responsible for its improved LDL protection over compound 2.
The antioxidant activity of the antioxidants towards biomolecules was examined by studying their ability to protect LDL, lysozyme, and DNA from free radicals. For LDL, AAPH was used to induce free radical damage. AAPH was used instead of Cu^2+ for LDL oxidation so that the free radical scavenging activity of the antioxidants could be measured without any pro-oxidant interference caused by metal ions. The oxidation of human low-density lipoprotein was used as a model for evaluating the ability of the G1 dendrimers as chain-breaking antioxidants for lipid. Oxidation of LDL leads to changes in both the lipid and the protein moieties of the lipoprotein particle. Lipid peroxidation in LDL has been evaluated by a variety of methods. Due to the complexity of events that occur in lipoprotein oxidation, the electrophoretic migration pattern of oxidized LDL is one of the best methods to evaluate the extent of lipoprotein oxidation. LDL was incubated with 20 mM AAPH and increasing concentrations of the G1 dendrimers (0-37 μM in PBS) for 21 h at 37° C. The mixture was then subjected to agarose gel electrophoresis using the Ciba Corning Clinical Electrophoresis System. The agarose gel was stained with Fat Red 7B. In FIG. 30A (top), lane 1 is native LDL, and lanes 2-8 are AAPH-oxidized LDL with 0, 37, 18.5, 9, 4.5, 2 and 1 μM compound 4, respectively. In FIG. 30B (bottom), lane 1 is native LDL, and lanes 2-8 are AAPH-oxidized LDL with 0, 37, 18.5, 9, 4.5, 2 and 1 μM quercetin or Trolox, respectively.

DPPH radical assay = conditions: read-out: DPPH IC50 at 120 min; Example 15
Protocol: The DPPH assay was one of three electron transfer (ET) assays used to determine the antioxidant potential of compound 1 (described in Example 6) in comparison to its monomeric counterpart (syringaldehyde) as well as popular antioxidants. In an ET assay, an antioxidant donates electron(s) to a molecular probe, thus reducing it. From the assay, thermodynamic conversion of antioxidant to antioxidant radical (oxidation) is measured during a fixed time period.
The reduction of DPPH radical was determined for ascorbic acid, Trolox, syringaldehyde, and the compound 1 described in Example 6 as previously reported (Brand-Williams, et al. Lebensm.-Wiss U.-Technol. 1995, 28, 25-30, incorporated herein by reference in its entirety). In the DPPH assay, DPPH• radical was reduced by the antioxidant in methanol (Brand-Williams, et al. Lebensm.-Wiss U.-Technol. 1995, 28, 25-30, incorporated herein by reference in its entirety). […] The DPPH reagent was made in methanol. Antioxidant sample (10 μL) was added to 1.0 mL of reagent and the absorbance was monitored at 515 nm until a plateau was reached. Antioxidant concentrations were 50 μM syringaldehyde, 12.5 μM Trolox and ascorbic acid, and 5 μM compound 1. All samples were made in methanol and run in triplicates at room temperature.
The DPPH• scavenging capacity of each antioxidant was evaluated from the plot of the percentage DPPH• remaining when the kinetics reached a steady state as a function of the molar ratios of antioxidant to DPPH•. […] Using the curve, EC50 (the amount of antioxidant necessary to decrease the initial DPPH• concentration by 50%), antiradical power (1/EC50, ability to reduce the DPPH•), reaction stoichiometry (EC50×2, the concentration of antioxidant required to reduce 100% of DPPH• radical), and the number of reduced DPPH• per antioxidant molecule (1/stoichiometry) for each antioxidant were calculated as previously described (Brand-Williams, et al. Lebensm.-Wiss U.-Technol. 1995, 28, 25-30, incorporated herein by reference in its entirety) and are depicted in Table 1.
Antioxidant capacity of the compounds was assessed by the DPPH assay (Brand-Williams, et al. Lebensm. Wiss. Technol. 1995, 28, 25, incorporated herein by reference in its entirety). […] In FIG. 22, control with methanol is (X, dashed); compound 1 is (□), compound 2 is (•), compound 3 is (◯), and Trolox (Δ). All antioxidant concentrations were 5 μM.
The free-radical scavenging ability of the antioxidants was evaluated by the DPPH assay, as described above in Example 7.

| IC50 (DPPH radical assay) | Compound | CHO cell viability (MTT) [1] | DNA protection (plasmid DNA pBR 322) | DNA protection (S band intensity) (plasmid DNA pBR 322; 11-45 μM antioxidant) | protection of LDL against free radical damage (Human LDL; 15 μM and 30 μM, 20 mM AAPH) | protection of LDL at lower concentrations (Human LDL; lanes 5-8, 20 mM AAPH) | only concentration effective in protecting LDL (Human LDL; 20 mM AAPH) |
| --- | --- | --- | --- | --- | --- | --- | --- |
| 2000 nM | COc1cc(CN(CCN(CCN(Cc2cc(OC)c(O)c(OC)c2)Cc2cc(OC)c(O)c(OC)c2)CCN(Cc2cc(OC)c(O)c(OC)c2)Cc2cc(OC)c(O)c(OC)c2)Cc2cc(OC)c(O)c(OC)c2)cc(OC)c1O [Compound 4] | did not show any reduction in cell viability | Some protection | well protected | fully protected | ineffective | – |
| 2000 nM | COc1cc(CN(CCN(CCN(Cc2ccc(O)c(OC)c2)Cc2ccc(O)c(OC)c2)CCN(Cc2ccc(O)c(OC)c2)Cc2ccc(O)c(OC)c2)Cc2ccc(O)c(OC)c2)ccc1O [Compound 5] | did not show any reduction in cell viability | Some protection | – | – | – | 30 µM |
